Results as given in patent publication US9624268B2, “Oral peptide inhibitors of interleukin-23 receptor and their use to treat inflammatory bowel diseases” (Protagonist Therapeutics, Inc., priority 2014, dated 2017).

System: Sprague Dawley rats with DSS-induced colitis
Test: Rat colitis model: 9 days of 3% DSS-containing drinking water
Format: in vivo
Conditions: 100 mg/kg PO, QD
Procedure: Rat Colitis Model: 9 Days of 3% DSS-Containing Drinking Water
In this model, colitis was induced in SD rats by 9 days of ad lib exposure to drinking water containing 3% DSS. The disease activity index (DAI) score and ratio of colon weight:colon length were compared between three study groups (n=6 rats/group): vehicle, 3% DSS, and 3% DSS with positive control (sulfasalazine administered at 100 mg/kg PO, QD).
Acute colitis was induced by feeding female Sprague Dawley rats with 3% (wt/vol) DSS dissolved in drinking water. […] To quantify colitis with clinical activity, disease activity index (DAI) was determined daily for each animal as an average of three parameters: body weight change (scale 0-3), stool consistency (scale 0-3) and hemoccult blood (scale 0-3), as shown in Table 15. At necropsy, the entire colon was removed from the cecum to the rectum. The colon was measured for length, flushed with PBS to remove feces, weighed, and opened longitudinally to determine macroscopic score.

O=C(O)c1cc(/N=N/c2ccc(S(=O)(=O)Nc3ccccn3)cc2)ccc1O [sulfasalazine]
terminal ratio of colon weight:colon length, difference with and without treatment: significant | disease activity index (DAI) score compared to DSS alone (from Day 5): attenuated the disease score
